Assay results: patent US6608082B1, “Treatment of erectile dysfunction using isoquinoline compound melanocortin receptor ligands” (Lion Bioscience AG, priority 1998, dated 2003)
Like-named read-outs stand apart in the source and are kept apart here. Blank lines part the entries; values can stand above or below the compound they belong to.

Columns and labels:
MCR-1 = target: T1, MCR-1 (Homo sapiens, UniProt Q01726); test: Melanocortin receptor binding assay, competition with 125I-HP 467, HEK 293 cells expressing hMCR-1; settings: for IC50: read-out: MC-1 IC50
T1 construct: expressed in transfected cells; host or cells: HEK 293
T1 sequence (Q01726 whole entry): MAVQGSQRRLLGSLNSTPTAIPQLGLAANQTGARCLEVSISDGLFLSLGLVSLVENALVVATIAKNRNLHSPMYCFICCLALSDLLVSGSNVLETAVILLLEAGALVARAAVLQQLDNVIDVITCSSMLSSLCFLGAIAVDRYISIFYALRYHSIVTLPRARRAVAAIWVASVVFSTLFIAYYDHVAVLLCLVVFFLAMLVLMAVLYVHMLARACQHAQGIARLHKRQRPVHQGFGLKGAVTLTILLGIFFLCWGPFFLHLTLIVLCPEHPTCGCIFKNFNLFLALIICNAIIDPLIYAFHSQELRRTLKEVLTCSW
Method in brief: (§1)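 Test compounds compete on intact HEK 293 cells carrying hMCR-1 (2×10^4 per tube) or hMCR-4 (4×10^3 per tube), suspended in PBS, 10% calf serum, 1 mM CaCl2.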

MCR-4 = target: T2, MCR-4 (Homo sapiens, UniProt P32245); test: Melanocortin receptor binding assay, competition with 125I-HP 467, HEK 293 cells expressing hMCR-4; settings: for IC50: read-out: MC-4 IC50
T2 construct: expressed in transfected cells; host or cells: HEK 293
T2 sequence (P32245 whole entry): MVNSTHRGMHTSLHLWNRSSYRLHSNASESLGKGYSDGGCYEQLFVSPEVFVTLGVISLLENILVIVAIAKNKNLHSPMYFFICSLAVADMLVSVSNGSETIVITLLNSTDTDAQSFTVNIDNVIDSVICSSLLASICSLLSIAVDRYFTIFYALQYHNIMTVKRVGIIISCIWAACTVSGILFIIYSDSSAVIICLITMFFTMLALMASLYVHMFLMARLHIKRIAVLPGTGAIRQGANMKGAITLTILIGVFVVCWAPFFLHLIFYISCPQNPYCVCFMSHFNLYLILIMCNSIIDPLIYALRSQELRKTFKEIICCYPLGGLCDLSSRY
Method in brief: as §1

[1] = inhibition of binding of 125I-HP 467, HEK 293 cells expressing MCR-1
[2] = inhibition of binding of 125I-HP 467, HEK 293 cells expressing MCR-4
[3] = inhibition of binding of 125I-HP 467, HEK 293 cells expressing MCR-1, TRG 2414 library
[4] = inhibition of binding of 125I-HP 467, HEK 293 cells expressing MCR-4, TRG 2414 library
[5] = competition with 125I-HP 467, HEK 293 cells expressing MCR-1
[6] = competition with 125I-HP 467, HEK 293 cells expressing MCR-4
[7] = TRG 2408 and TRG 2409 libraries, inhibition of 125I-HP 467 binding
[8] = TRG 2406 and TRG 2407 libraries, inhibition of binding of 125I-HP 467

- IC50 (MCR-1; [1]): 0.677 µM
- IC50 (MCR-4; [2]): 3.89 µM
Compound: CCCCOc1ccc(C2C(CN)c3ccccc3CN2CCCC(CN)NCCC2CCCCC2)cc1 (stereo not shown) [TRG 2415-12]

- IC50 (MCR-1; [3]): 1.4 µM
- IC50 (MCR-4; [4]): 9.82 µM
Compound: NCC(CCCCN1Cc2ccccc2C(CNC2CCCCC2)C1c1ccc(Oc2ccccc2)cc1)NCc1ccccc1 (stereo not shown) [TRG 2414-159]

- IC50 (MCR-1; [3]): 17.6 µM
- MC-4 IC50 (MCR-4; [4]): no fit
Compound: NC[C@H](CCCCN1Cc2ccccc2C(CNCc2ccccc2C(F)(F)F)C1c1ccc(Oc2ccccc2)cc1)NCc1ccccc1 (stereo partly shown) [TRG 2414-123]

- IC50 (MCR-1; [5]): 1.22 µM
- IC50 (MCR-4; [6]): 1.46 µM
Compound: COCCNC(CN)CCCN1Cc2ccccc2C(CN)C1c1ccc(-c2ccccc2)cc1 (stereo not shown) [TRG 2411-146]

- IC50 (MCR-1; [5]): 1.24 µM
- IC50 (MCR-4; [6]): 1.98 µM
Compound: NCC(CCCN1Cc2ccccc2C(CNCCc2ccccc2)C1c1ccc(-c2ccccc2)cc1)NCCc1ccccc1 (stereo not shown) [TRG 2411-116]

- IC50 (MCR-1; [3]): 8.64 µM
- IC50 (MCR-4; [4]): 17.5 µM
Compound: CC(C)Cc1ccc(C(C)CNC(CN)CCCCN2Cc3ccccc3C(CNC3CCCCC3)C2c2ccc(Cl)cc2Cl)cc1 (stereo not shown) [TRG 2414-40]

- IC50 (MCR-1; [7]): 1.93 µM
- IC50 (MCR-4; [7]): 4.24 µM
Compound: NC[C@@H](CCCCN1Cc2ccccc2C(CNC2CCCCC2)C1c1ccc(Cl)cc1Cl)NCCc1ccccc1 (stereo partly shown) [TRG 2408-42]

- IC50 (MCR-1; [7]): 7.52 µM
- IC50 (MCR-4; [7]): 12 µM
Compound: NCC(N)CCN1Cc2ccccc2C(CNC2CCCCC2)C1c1ccc(-c2ccccc2)cc1 (mixture of isomers) [TRG 2408-111]

- IC50 (MCR-1; TRG 2414 library, inhibition of binding of 125I-HP 467, HEK 293 cells expressing MCR-1): 2.81 µM
- IC50 (MCR-4; TRG 2414 library, inhibition of binding of 125I-HP 467, HEK 293 cells expressing MCR-4): 8.09 µM
Compound: CCCOc1ccc(C2C(CNCCc3ccc(OC)cc3)c3ccccc3CN2CCCCC(CN)NCCc2ccccc2)cc1 (stereo not shown) [Cmpd 186]

- IC50 (MCR-1; [5]): 0.45 µM
- IC50 (MCR-4; [6]): 1.32 µM
Compound: CCCCNc1ccc(C2C(CNCCc3ccccc3)c3ccccc3CN2CCCCC(CN)NCCc2ccc(Br)cc2)cc1 (stereo not shown) [TRG 2411-78]

- IC50 (MCR-1; [5]): 0.12 µM
- IC50 (MCR-4; [6]): 0.84 µM
Compound: CCNc1ccc(C2C(CNCCc3ccccc3)c3ccccc3CN2CCCCC(CN)NCc2ccc(OC)cc2)cc1 (stereo not shown) [TRG 2411-45]

- MC-1 IC50 (MCR-1; [3]): no fit
- IC50 (MCR-4; [4]): 52.6 µM
Compound: COc1cccc(CNCC2c3ccccc3CN(CCCCC(CN)NCC(C)c3ccc(CC(C)C)cc3)C2c2cc(C(F)(F)F)cc(C(F)(F)F)c2)c1 (stereo not shown) [TRG 2414-60]

- IC50 (MCR-1; [5]): 0.82 µM
- IC50 (MCR-4; [6]): 1.43 µM
Compound: CCNC(CN)CCCN1Cc2ccccc2C(CNCCc2ccccc2)C1c1ccc(-c2ccccc2)cc1 (stereo not shown) [TRG 2411-115]

- MC-1 IC50 (MCR-1; [3]): no fit
- MC-4 IC50 (MCR-4; [4]): no fit
Compound: CC(C)Cc1ccc(C(C)CNC(CN)CCCCN2Cc3ccccc3C(CNCc3ccccc3)C2c2ccc(Oc3ccccc3)cc2)cc1 (stereo not shown) [TRG 2414-152]

- IC50 (MCR-1; [1]): 0.15 µM
- IC50 (MCR-4; [2]): 1.24 µM
Compound: CCCCNc1ccc(C2C(CNCCc3ccccc3)c3ccccc3CN2CCCC(CN)NCCc2ccccc2)cc1 (stereo not shown) [TRG 2411-193]

- IC50 (MCR-1; [8]): 0.19 µM
- IC50 (MCR-4; [8]): 14.9 µM
Compound: CCNc1ccc(C2C(CNCc3ccccc3OCC)c3ccccc3CN2CCCCC(CN)NC)cc1 (stereo not shown) [TRG 2407-55]

- IC50 (MCR-1; [3]): 9.42 µM
- IC50 (MCR-4; [4]): 16.3 µM
Compound: NCC(CCCCN1Cc2ccccc2C(CNCc2ccccc2)C1c1ccc(Oc2ccccc2)cc1)NCCc1ccccc1 (stereo not shown) [TRG 2414-150]

- IC50 (MCR-1; [5]): 0.22 µM
- IC50 (MCR-4; [6]): 1.11 µM
Compound: CCNc1ccc(C2C(CNC3CCCCC3)c3ccccc3CN2CCCC[C@@H](CN)NCCC2CCCCC2)cc1 (stereo partly shown) [TRG 2411-58]

- IC50 (MCR-1; [5]): 0.55 µM
- IC50 (MCR-4; [6]): 0.86 µM
Compound: CCNc1ccc(C2C(CNC3CCCCC3)c3ccccc3CN2CCCCC(CN)NCCc2ccc(Br)cc2)cc1 (stereo not shown) [TRG 2411-52]

- IC50 (MCR-1; [8]): 0.57 µM
- IC50 (MCR-4; [8]): 0.53 µM
Compound: CNC(CN)CCCCN1Cc2ccccc2C(CNC2CCCC2)C1c1ccc(Cl)cc1Cl (stereo not shown) [TRG 2407-27]

Compound: COc1ccc(CCNCC2c3ccccc3CN(CCCCC(CN)NCc3ccccc3)C2c2cccc(C(F)(F)F)c2)cc1 (stereo not shown) [TRG 2421-43]
- IC50 (MCR-1; [1]): 2.15 µM
- IC50 (MCR-4; [2]): 1.76 µM

- IC50 (MCR-1; [7]): 0.61 µM
- IC50 (MCR-4; [7]): 7.16 µM
Compound: CCNc1ccc(C2C(CNC3CCCCC3)c3ccccc3CN2CCCC[C@@H](CN)NCCc2ccccc2)cc1 (stereo partly shown) [TRG 2408-6]

Compound: CCNc1ccc(C2C(CNCCc3ccccc3)c3ccccc3CN2CCCC(CN)NCCOCCNCCc2ccccc2)cc1 (stereo not shown) [TRG 2420-12]
- IC50 (MCR-1; [1]): 0.079 µM
- IC50 (MCR-4; [2]): 1.53 µM

- IC50 (MCR-1; [5]): 0.19 µM
- IC50 (MCR-4; [6]): 1.03 µM
Compound: CCNc1ccc(C2C(CNCCc3ccccc3)c3ccccc3CN2CCCCC(CN)NCc2ccccc2)cc1 (stereo not shown) [TRG 2411-43]

- IC50 (MCR-1; [8]): 0.43 µM
- IC50 (MCR-4; [8]): 0.46 µM
Compound: C=CCNCC1c2ccccc2CN(CCCCC(CN)NC)C1c1ccc(Cl)cc1Cl (stereo not shown) [TRG 2407-36]

- IC50 (MCR-1; [8]): 2.36 µM
- MC-4 IC50 (MCR-4; [8]): no fit
Compound: CCNc1ccc(C2C(CNc3ccc(OC)cc3)c3ccccc3CN2CCCCC(CN)NC)cc1 (stereo not shown) [TRG 2407-49]
